Data reported in US20220220155A1, “VASCULAR C[…] USE THEREOF” (priority 2019, published 2022).
Where a SMILES comes first, the peptide text is derived from it. [ ]: non-standard residue; d: D form.

Tests used:
SMase-treated LDL = biological target: T1, SMase-treated LDL (Homo sapiens, UniProt P04114); experiment: Anti-LDL aggregation assay, turbidimetry, aggregation induced by sphingomyelinase (SMase); format: biochemical; conditions: peptide 10 μM (compound/ApoB-100 4.7/1), human LDL 1.44 mg/mL, 40 U/L Bacillus cereus SMase, 18 hours, 37° C., absorbance at 405 nm, Equation I
T1 construct: from tissue; host or cells: pooled normolipemic human plasma
T1 sequence (P04114 28-4563): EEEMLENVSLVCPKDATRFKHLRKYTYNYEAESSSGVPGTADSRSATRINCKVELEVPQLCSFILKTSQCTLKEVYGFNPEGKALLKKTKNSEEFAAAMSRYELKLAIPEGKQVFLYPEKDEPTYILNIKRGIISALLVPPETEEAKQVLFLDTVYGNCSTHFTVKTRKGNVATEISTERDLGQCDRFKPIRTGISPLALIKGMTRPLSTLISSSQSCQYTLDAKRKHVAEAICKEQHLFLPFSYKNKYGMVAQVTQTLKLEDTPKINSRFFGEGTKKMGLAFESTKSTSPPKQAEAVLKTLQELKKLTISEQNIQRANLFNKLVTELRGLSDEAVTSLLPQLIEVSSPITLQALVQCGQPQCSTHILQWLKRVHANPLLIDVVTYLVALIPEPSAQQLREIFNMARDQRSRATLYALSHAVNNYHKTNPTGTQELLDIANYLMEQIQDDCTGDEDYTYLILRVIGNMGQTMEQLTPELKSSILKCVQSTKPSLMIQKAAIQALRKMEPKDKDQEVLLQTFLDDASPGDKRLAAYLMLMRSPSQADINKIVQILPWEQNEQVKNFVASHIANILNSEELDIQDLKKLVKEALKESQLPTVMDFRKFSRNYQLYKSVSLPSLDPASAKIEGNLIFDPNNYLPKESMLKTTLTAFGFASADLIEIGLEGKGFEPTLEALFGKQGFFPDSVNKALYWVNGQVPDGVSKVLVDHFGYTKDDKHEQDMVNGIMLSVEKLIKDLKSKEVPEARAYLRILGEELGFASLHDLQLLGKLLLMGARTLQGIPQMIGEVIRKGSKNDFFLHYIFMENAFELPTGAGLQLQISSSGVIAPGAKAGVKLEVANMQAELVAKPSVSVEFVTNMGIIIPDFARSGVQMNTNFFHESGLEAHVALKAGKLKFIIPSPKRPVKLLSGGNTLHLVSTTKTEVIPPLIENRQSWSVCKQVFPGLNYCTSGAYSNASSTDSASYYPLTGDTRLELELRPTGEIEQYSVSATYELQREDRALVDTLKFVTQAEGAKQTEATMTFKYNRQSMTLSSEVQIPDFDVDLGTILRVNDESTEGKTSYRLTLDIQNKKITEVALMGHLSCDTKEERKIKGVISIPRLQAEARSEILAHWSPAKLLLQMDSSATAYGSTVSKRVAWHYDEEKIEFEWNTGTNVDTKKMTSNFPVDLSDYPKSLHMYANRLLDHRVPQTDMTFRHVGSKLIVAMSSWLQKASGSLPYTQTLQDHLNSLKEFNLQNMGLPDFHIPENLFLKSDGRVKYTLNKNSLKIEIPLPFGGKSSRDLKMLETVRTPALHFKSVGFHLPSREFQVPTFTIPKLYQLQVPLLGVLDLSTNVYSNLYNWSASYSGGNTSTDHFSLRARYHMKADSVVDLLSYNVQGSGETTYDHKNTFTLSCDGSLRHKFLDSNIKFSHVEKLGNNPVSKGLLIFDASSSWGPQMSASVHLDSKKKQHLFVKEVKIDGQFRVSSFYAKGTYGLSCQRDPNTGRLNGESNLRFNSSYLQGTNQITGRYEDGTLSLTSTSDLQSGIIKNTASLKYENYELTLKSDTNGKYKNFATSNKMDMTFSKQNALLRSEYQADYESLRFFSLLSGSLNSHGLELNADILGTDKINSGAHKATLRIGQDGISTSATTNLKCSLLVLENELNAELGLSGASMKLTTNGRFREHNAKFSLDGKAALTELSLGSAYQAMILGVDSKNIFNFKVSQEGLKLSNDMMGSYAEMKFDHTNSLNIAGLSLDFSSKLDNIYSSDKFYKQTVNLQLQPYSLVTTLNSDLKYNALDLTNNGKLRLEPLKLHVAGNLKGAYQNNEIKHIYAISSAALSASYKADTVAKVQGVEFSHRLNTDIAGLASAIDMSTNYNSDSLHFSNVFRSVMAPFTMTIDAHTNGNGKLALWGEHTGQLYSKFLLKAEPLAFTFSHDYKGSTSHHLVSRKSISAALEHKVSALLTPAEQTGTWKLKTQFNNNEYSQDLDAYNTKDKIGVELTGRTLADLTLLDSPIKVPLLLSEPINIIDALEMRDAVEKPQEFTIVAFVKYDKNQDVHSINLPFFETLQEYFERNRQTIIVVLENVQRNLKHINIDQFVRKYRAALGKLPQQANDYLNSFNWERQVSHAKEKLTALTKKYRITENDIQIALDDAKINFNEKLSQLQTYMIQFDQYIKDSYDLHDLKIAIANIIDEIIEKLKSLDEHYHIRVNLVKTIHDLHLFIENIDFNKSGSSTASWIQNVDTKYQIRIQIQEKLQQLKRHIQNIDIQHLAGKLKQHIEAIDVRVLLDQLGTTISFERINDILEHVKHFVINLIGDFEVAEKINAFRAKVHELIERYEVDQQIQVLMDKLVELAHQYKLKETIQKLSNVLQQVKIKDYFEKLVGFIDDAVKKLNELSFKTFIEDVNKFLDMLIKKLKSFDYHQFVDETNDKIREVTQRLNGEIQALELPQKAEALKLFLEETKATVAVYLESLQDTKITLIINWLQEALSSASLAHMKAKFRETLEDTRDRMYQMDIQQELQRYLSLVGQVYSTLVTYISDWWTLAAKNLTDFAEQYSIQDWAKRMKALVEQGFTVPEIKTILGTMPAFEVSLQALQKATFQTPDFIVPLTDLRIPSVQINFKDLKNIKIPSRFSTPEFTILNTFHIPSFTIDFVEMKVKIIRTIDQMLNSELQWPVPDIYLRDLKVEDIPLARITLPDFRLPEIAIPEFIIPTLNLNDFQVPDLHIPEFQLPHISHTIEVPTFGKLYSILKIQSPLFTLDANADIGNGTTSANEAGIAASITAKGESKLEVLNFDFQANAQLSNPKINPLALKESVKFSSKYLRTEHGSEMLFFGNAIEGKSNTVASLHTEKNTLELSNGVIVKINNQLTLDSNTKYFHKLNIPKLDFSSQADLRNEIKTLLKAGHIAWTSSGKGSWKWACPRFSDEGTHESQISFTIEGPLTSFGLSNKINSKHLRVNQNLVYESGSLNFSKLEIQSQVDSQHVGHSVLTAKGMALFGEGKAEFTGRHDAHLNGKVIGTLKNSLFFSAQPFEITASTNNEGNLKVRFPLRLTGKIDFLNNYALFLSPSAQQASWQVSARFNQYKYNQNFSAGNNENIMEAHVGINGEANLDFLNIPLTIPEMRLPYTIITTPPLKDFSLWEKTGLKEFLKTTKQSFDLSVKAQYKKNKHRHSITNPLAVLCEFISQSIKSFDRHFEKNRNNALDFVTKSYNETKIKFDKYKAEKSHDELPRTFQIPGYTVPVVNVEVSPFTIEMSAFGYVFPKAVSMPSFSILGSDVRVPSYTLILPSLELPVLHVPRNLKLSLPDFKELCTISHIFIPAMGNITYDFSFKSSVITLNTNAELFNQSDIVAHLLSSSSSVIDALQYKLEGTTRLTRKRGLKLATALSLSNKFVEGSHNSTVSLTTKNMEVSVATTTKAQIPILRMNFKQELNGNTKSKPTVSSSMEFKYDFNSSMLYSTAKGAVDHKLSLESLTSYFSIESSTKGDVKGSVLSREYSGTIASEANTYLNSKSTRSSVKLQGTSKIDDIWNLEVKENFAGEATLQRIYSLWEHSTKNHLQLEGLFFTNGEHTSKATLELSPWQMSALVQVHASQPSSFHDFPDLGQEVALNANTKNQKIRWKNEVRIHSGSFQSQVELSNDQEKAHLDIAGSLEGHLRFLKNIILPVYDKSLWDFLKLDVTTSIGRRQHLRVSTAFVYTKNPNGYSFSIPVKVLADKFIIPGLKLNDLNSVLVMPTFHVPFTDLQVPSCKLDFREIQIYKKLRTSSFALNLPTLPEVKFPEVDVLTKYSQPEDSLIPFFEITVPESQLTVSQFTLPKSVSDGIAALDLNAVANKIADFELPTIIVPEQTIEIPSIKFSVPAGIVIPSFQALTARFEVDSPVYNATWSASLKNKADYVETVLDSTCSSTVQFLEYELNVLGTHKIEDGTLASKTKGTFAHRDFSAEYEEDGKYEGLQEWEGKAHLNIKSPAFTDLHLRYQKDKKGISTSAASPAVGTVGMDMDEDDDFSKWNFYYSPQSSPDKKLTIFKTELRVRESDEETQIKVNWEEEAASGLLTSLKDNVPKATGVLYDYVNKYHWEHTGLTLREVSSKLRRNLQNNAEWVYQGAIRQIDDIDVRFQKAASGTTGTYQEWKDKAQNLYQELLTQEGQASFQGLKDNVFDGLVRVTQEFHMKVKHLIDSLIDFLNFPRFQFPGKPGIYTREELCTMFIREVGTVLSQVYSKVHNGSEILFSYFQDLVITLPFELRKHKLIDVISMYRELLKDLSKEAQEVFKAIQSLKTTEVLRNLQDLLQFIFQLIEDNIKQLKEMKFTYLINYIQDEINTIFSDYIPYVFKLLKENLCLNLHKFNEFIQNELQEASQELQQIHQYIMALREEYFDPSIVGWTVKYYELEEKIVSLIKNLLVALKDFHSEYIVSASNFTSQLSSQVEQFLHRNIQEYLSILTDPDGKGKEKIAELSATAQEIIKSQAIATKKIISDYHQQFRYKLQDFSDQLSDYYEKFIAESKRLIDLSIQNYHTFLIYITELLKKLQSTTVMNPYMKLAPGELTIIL
Procedure: (§1) The efficacy of the novel compounds to inhibit the aggregation of LDL has been tested in two parallel turbidimetric assays differing from each other only in the enzyme used to induce LDL aggregation, namely sphingomyelinase (SMase) and phospholipase A2 (PLA2), respectively.
(§2) Human LDL (d1.019-d1.063 g/mL) were obtained from pooled normolipemic human plasma by sequential ultracentrifugation in a KBr density gradient. Briefly, VLDL were first discarded after spinning plasma at 36.000 rpm for 18 h at 4° C., VLDL-free plasma was layered with 1.063 g/mL KBr solution and centrifuged at 36,000 rpm for 18 h at 4° C. LDL were dialyzed against 0.02 M Tris, 0.15 M NaCl, 1 mM EDTA, pH 7.5 for 18 hours, and then against normal saline for 2 hours. Finally, isolated LDL were filter-sterilized. Protein concentration was determined using a colorimetric assay.
(§3) Human LDL particles (1.44 mg/mL) were incubated with 40 U/L of Bacillus cereus SMase or with 50 μg/L of type II secretory PLA2 from honey bee venom in 20 mM Tris buffer (pH 7.0) containing 150 mM NaCl, 2 mM CaCl2), and MgCl2 at 37° C. LDL incubation with SMase and PLA2 was performed at peptide concentration of 10 μM (ratio compound/ApoB-100: 4.7/1) for 18 hours. LDL lipolysis was stopped by addition of EDTA (final concentration 10 mM).
(§4) The efficiency of each novel compound to inhibit LDL aggregation induced by SMase and PLA2 was estimated by turbidimetry measuring the absorbance at a wavelength of 405 nm. Thus, the inhibitory activity was calculated according to Equation I.
(§5) a corresponds to the absorbance value in the presence of nLDL particles, LDL aggregating enzyme (i.e., SMase or PLA2) and test compound;
(§6) b corresponds to the absorbance value in the presence of only nLDL particles;
(§7) c corresponds to the absorbance value in the presence of nLDL particles and LDL aggregating enzyme (i.e., SMase or PLA2);

PLA2-treated LDL = biological target: T2, PLA2-treated LDL (Homo sapiens, UniProt P04114); experiment: Anti-LDL aggregation assay, turbidimetry, aggregation induced by phospholipase A2 (PLA2); format: biochemical; conditions: 18 h, read-out: Inhibition of LDL aggregation, PLA2-treated LDL
T2 construct: from tissue; host or cells: pooled normolipemic human plasma
T2 sequence (P04114 28-4563): as above
Procedure: as §1, §2, §3, §4, §5, §6, §7

Which results are given for `CC(=O)N[C@H](CO)C(=O)N[C@H](CCC(=O)O)C(=O)N[C@H](CC(=O)O)C(=O)N[C@H](CCC(N)=O)C(=O)N[C@H](CO)C(=O)N[C@H](CCC(=O)O)C(=O)N[C@H](CCC(=O)O)C(=O)N[C@H](CCC(=O)O)C(=O)N[C@H](CCC(N)=O)C(N)=O` [Example 4, Ac-D-Ser-D-Glu-D-Asp-D-Gln-D-Ser-D-Glu-D-Glu-D-Glu-D-Gln-NH2] (Ac-[dS][dE][dD][dQ][dS][dE][dE][dE][dQ]-NH2)?
inhibition at 10 µM (SMase-treated LDL): 91.5%; inhibition at 10 µM (PLA2-treated LDL): 32.6%

Which results are given for `CC(=O)N[C@H](CO)C(=O)N[C@H](CCC(=O)O)C(=O)N[C@H](CC(=O)O)C(=O)N[C@H](CC(N)=O)C(=O)N[C@H](CCCNC(=N)N)C(=O)N[C@H](CC(=O)O)C(=O)N[C@H](CCC(=O)O)C(=O)N[C@H](CCC(=O)O)C(=O)N[C@H](Cc1c[nH]c2ccccc12)C(N)=O` [Example 8, Ac-D-Ser-D-Glu-D-Asp-D-Asn-D-Arg-D-Asp-D-Glu-D-Glu-D-Trp-NH2] (Ac-[dS][dE][dD][dN][dR][dD][dE][dE][dW]-NH2)?
inhibition at 10 µM (SMase-treated LDL): 64.2%; inhibition at 10 µM (PLA2-treated LDL): 3.1%

`CC(=O)N[C@H](CO)C(=O)N[C@H](CCC(=O)O)C(=O)N[C@H](CC(=O)O)C(=O)N[C@H](CCC(N)=O)C(=O)N[C@H](C)C(=O)N[C@H](CCC(=O)O)C(=O)N[C@H](CCC(=O)O)C(=O)N[C@H](CCC(=O)O)C(=O)N[C@H](C)C(N)=O` [Example 5, Ac-D-Ser-D-Glu-D-Asp-D-Gln-D-Ala-D-Glu-D-Glu-D-Glu-D-Ala-NH2] (Ac-[dS][dE][dD][dQ][dA][dE][dE][dE][dA]-NH2) was tested. Which inhibition at 10 µM (SMase-treated LDL) did it give?
Its inhibition at 10 µM is 90.1%.

And the inhibition at 10 µM (PLA2-treated LDL)?
Its inhibition at 10 µM is 20.7%.

For `CC(=O)N[C@H](CO)C(=O)N[C@H](CCC(=O)O)C(=O)N[C@H](CC(=O)O)C(=O)N[C@H](CC(N)=O)C(=O)N[C@H](C)C(=O)N[C@H](CC(=O)O)C(=O)N[C@H](CCC(=O)O)C(=O)N[C@H](CCC(=O)O)C(=O)N[C@H](C)C(N)=O` [Example 3, Ac-D-Ser-D-Glu-D-Asp-D-Asn-D-Ala-D-Asp-D-Glu-D-Glu-D-Ala-NH2] (Ac-[dS][dE][dD][dN][dA][dD][dE][dE][dA]-NH2), which inhibition at 10 µM (SMase-treated LDL) is on record?
Its inhibition at 10 µM is 90%.

What about the inhibition at 10 µM (PLA2-treated LDL) of the same molecule?
The inhibition at 10 µM was 37.2%.

`CC(=O)N[C@H](CO)C(=O)N[C@H](CCC(=O)O)C(=O)N[C@H](CC(=O)O)C(=O)N[C@H](CC(N)=O)C(=O)N[C@H](CCCNC(=N)N)C(=O)N[C@H](CC(=O)O)C(=O)N[C@H](CCC(=O)O)C(=O)N[C@H](CCC(=O)O)C(=O)N[C@H](CC(C)C)C(N)=O` [Example 7, Ac-D-Ser-D-Glu-D-Asp-D-Asn-D-Arg-D-Asp-D-Glu-D-Glu-D-Leu-NH2] (Ac-[dS][dE][dD][dN][dR][dD][dE][dE][dL]-NH2) was tested. Which inhibition at 10 µM (SMase-treated LDL) did it give?
The inhibition at 10 µM was 44.7%.

What about the inhibition at 10 µM (PLA2-treated LDL) of the same molecule?
Its inhibition at 10 µM is -1.9%.
